US20230000813A1, “COMPOUND FOR THE TREATMENT OF BOVINE OR SWINE RESPIRATORY DISEASE” (Intervet Inc., priority 2016, published 2023)
Converted amounts (≈) assume the structure as drawn.

How the values were obtained:
Assay in all cases: MIC, broth-microdilution (CLSI VET01-A4)
Type in all cases: cell-based
[1] = tested on: Mannheimia haemolytica MH 13093 (XB0472-6014.1, BRD field isolate)
In short: (§1)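 Broth microdilution per CLSI VET01-A4 using doubling dilution series of compound. MIC taken as the lowest concentration with no turbidity visible to the unaided eye, interpreted per CLSI VET01-S3.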

[2] = tested on: Mannheimia haemolytica MH 13065 (XB0446-6003.9, BRD field isolate)
In short: as §1

[3] = tested on: Pasteurella multocida PM 10775 (080130003051, BRD field isolate); conditions: Pasteurella multocida PM 10775
In short: (§2)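 Read-out is visual: the MIC is the lowest compound concentration at which no turbidity is seen by eye. Trays carried a doubling dilution series, with interpretation following CLSI VET01-S3.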

[4] = tested on: Pasteurella multocida PM 6267 (P 2225 (L386), reference strain, mouse infection strain); conditions: Pasteurella multocida PM 6267; for MIC: read-out: MIC PM 6267
In short: as §2

[5] = tested on: Mannheimia haemolytica MH 6357 (M7/2, reference strain, cattle infection strain); conditions: Mannheimia haemolytica MH 6357; read-out: MIC MH 6357
In short: as §2

[6] = tested on: Mannheimia haemolytica MH 6374 (ATCC 33396, reference strain); conditions: Mannheimia haemolytica MH 6374; read-out: MIC MH 6374
In short: as §2

[7] = tested on: Mannheimia haemolytica MH 12587 (1071, BRD field isolate, macrolide-resistance: erm+, E+); conditions: Mannheimia haemolytica MH 12587, macrolide-resistant
In short: as §2

[8] = tested on: Pasteurella multocida PM 6391 (ATCC 43137, reference strain); conditions: Pasteurella multocida PM 6391; read-out: MIC PM 6391
In short: as §2

[9] = tested on: Mannheimia haemolytica MH 10720 (154, BRD field isolate); conditions: Mannheimia haemolytica MH 10720; for MIC: read-out: MIC MH 10720
In short: as §2

[10] = tested on: Pasteurella multocida PM 12080 (IV102277-0093, BRD field isolate); conditions: Pasteurella multocida PM 12080; for MIC: read-out: MIC PM 12080
In short: as §2

Row | SMILES | MIC [1] [µM] | MIC [2] [µM] | MIC PM 10775 [3] | MIC PM 6267 [4] | MIC [5] [µM] | MIC [6] [µM] | MIC MH 12587 [7] [µM] | MIC [8] [µM] | MIC MH 10720 [9] | MIC [10] [µM] | MIC [9] [µM] | MIC PM 12080 [10] | MIC [4] [µM]
1 | CC(C)C(NC(=O)c1ccc(C#Cc2ccc(CNCc3cccnc3)cc2)cc1)C(=O)NO (stereo not shown) [Compound 287] | 0.8 (≈ 0.365 µg/mL) | 0.8 (≈ 0.365 µg/mL) | <=0.1 μM | <=0.1 μM | 0.4 (≈ 0.183 µg/mL) | 0.4 (≈ 0.183 µg/mL) | 0.8 (≈ 0.365 µg/mL) | 0.4 (≈ 0.183 µg/mL) | <=0.1 μM | 0.2 (≈ 0.0913 µg/mL) |  |  | 
2 | CC(C)C(NC(=O)c1ccc(C#Cc2ccc(CNCc3ccnc(Cl)c3)cc2)cc1)C(=O)NO (stereo not shown) [Compound 288] | 0.8 (≈ 0.393 µg/mL) | 0.8 (≈ 0.393 µg/mL) | <=0.1 μM | <=0.1 μM | 0.4 (≈ 0.196 µg/mL) | 0.8 (≈ 0.393 µg/mL) | 1.6 (≈ 0.786 µg/mL) | 0.4 (≈ 0.196 µg/mL) |  | 0.2 (≈ 0.0982 µg/mL) | 0.2 (≈ 0.0982 µg/mL) |  | 
3 | CC(C)C(NC(=O)c1ccc(C#Cc2ccc(CNCc3ccccn3)cc2)cc1)C(=O)NO (stereo not shown) [Compound 289] | 0.8 (≈ 0.365 µg/mL) | 0.8 (≈ 0.365 µg/mL) | <=0.1 μM | <=0.1 μM | 0.4 (≈ 0.183 µg/mL) | 0.8 (≈ 0.365 µg/mL) | 1.6 (≈ 0.73 µg/mL) | 0.4 (≈ 0.183 µg/mL) |  | 0.4 (≈ 0.183 µg/mL) | 0.2 (≈ 0.0913 µg/mL) |  | 
4 | CC(C)C(NC(=O)c1ccc(C#Cc2ccc(CNCc3ccco3)cc2)cc1)C(=O)NO (stereo not shown) [Compound 290] | 0.4 (≈ 0.178 µg/mL) | 0.4 (≈ 0.178 µg/mL) | <=0.1 μM | <=0.1 μM | 0.2 (≈ 0.0891 µg/mL) | 0.4 (≈ 0.178 µg/mL) | 0.4 (≈ 0.178 µg/mL) | 0.4 (≈ 0.178 µg/mL) | <=0.1 μM | 0.2 (≈ 0.0891 µg/mL) |  |  | 
5 | CC(C)C(NC(=O)c1ccc(C#Cc2ccc(CNCc3cccs3)cc2)cc1)C(=O)NO (stereo not shown) [Compound 291] | 0.4 (≈ 0.185 µg/mL) | 0.2 (≈ 0.0923 µg/mL) | <=0.1 μM | <=0.1 μM | 0.2 (≈ 0.0923 µg/mL) | 0.4 (≈ 0.185 µg/mL) | 0.8 (≈ 0.369 µg/mL) | 0.2 (≈ 0.0923 µg/mL) | <=0.1 μM |  |  | <=0.1 μM | 
6 | Cc1ccc(CNCc2ccc(C#Cc3ccc(C(=O)NC(C(=O)NO)C(C)C)cc3)cc2)cc1 (stereo not shown) [Compound 292] | 0.8 (≈ 0.376 µg/mL) | 0.8 (≈ 0.376 µg/mL) | <=0.1 μM |  | 0.4 (≈ 0.188 µg/mL) | 0.8 (≈ 0.376 µg/mL) | 1.6 (≈ 0.751 µg/mL) | 0.4 (≈ 0.188 µg/mL) |  | 0.4 (≈ 0.188 µg/mL) | 0.4 (≈ 0.188 µg/mL) |  | 0.2 (≈ 0.0939 µg/mL)
7 | CCC(C)C(NC(=O)c1ccc(C#Cc2ccc(CNCc3cccnc3)cc2)cc1)C(=O)NO (stereo not shown) [Compound 299] | 0.8 (≈ 0.376 µg/mL) | 0.8 (≈ 0.376 µg/mL) | <=0.1 μM |  | 0.4 (≈ 0.188 µg/mL) | 0.8 (≈ 0.376 µg/mL) | 1.6 (≈ 0.753 µg/mL) | 1.6 (≈ 0.753 µg/mL) | <=0.1 μM | 0.4 (≈ 0.188 µg/mL) |  |  | 0.2 (≈ 0.0941 µg/mL)
8 | CCC(C)C(NC(=O)c1ccc(C#Cc2ccc(CNCc3ccco3)cc2)cc1)C(=O)NO (stereo not shown) [Compound 301] | 0.8 (≈ 0.368 µg/mL) | 0.8 (≈ 0.368 µg/mL) | <=0.1 μM |  | 0.4 (≈ 0.184 µg/mL) | 0.8 (≈ 0.368 µg/mL) | 1.6 (≈ 0.735 µg/mL) | 0.8 (≈ 0.368 µg/mL) | <=0.1 μM | 0.4 (≈ 0.184 µg/mL) |  |  | 0.4 (≈ 0.184 µg/mL)
9 | CCC(C)C(NC(=O)c1ccc(C#Cc2ccc(CNCc3cccs3)cc2)cc1)C(=O)NO (stereo not shown) [Compound 302] | 0.8 (≈ 0.38 µg/mL) | 0.8 (≈ 0.38 µg/mL) | <=0.1 μM |  | 0.4 (≈ 0.19 µg/mL) | 1.6 (≈ 0.761 µg/mL) | 1.6 (≈ 0.761 µg/mL) | 0.8 (≈ 0.38 µg/mL) |  | 0.2 (≈ 0.0951 µg/mL) | 0.2 (≈ 0.0951 µg/mL) |  | 0.2 (≈ 0.0951 µg/mL)
10 | COc1ccc(CNCc2ccc(C#Cc3ccc(C(=O)N[C@H](C(=O)NO)[C@@H](C)O)cc3)s2)cc1 [Compound 306] | 0.8 (≈ 0.395 µg/mL) | 0.4 (≈ 0.197 µg/mL) | <=0.1 μM | <=0.1 μM | 0.4 (≈ 0.197 µg/mL) | 0.4 (≈ 0.197 µg/mL) | 0.8 (≈ 0.395 µg/mL) | 0.2 (≈ 0.0987 µg/mL) | <=0.1 μM | 0.2 (≈ 0.0987 µg/mL) |  |  | 
